The source of these data is patent US20260209220A1, “SUBSTITUTED TETRAHYDROPYRROLO-PYRIDINONE COMPOUNDS AND THEIR USE IN TREATING MEDICAL CONDITIONS” (Karuna Therapeutics, Inc., priority 2022, published 2026).

A word on the pEC50: it is the EC50 on a negative log10 scale, so that one unit is a factor of ten.

Assay [1] deals with amphetamine-evoked hyperlocomotion. The assay is described as follows: Amphetamine-evoked hyperlocomotion in rats (open field). In kind it is in vivo, rat. To be noted: Sprague Dawley rats, 0.5 mg/kg amphetamine s.c., distance traveled in the 60 min after AMP. The protocol: Compounds may be tested for ability to impact behavior activity of rats according to the following procedures. Animals: Adult male, Sprague Dawley rats (Envigo, Indianapolis, IN, USA) are housed in a colony maintained at 23° C. with 12 h light/dark cycles (lights on at 0600 hours). All animals weigh 290-330 g at the beginning of the study and are equally divided into 5 groups (n=8 per group) and received one of the treatment conditions listed below. Behavioral Procedures: Studies are conducted in MedAssociates open field chambers (27.3 cm×27.3 cm×20.3 cm, MedAssociates, St. Albans, VT) in which movement is automatically tracked and recorded by 16 beam arrays. The administration pretreatment of the test article is determined to coincide with Tmax at the time of the amphetamine-evoked session with optimal route of administration. All groups are subcutaneously treated with 0.5 mg/kg amphetamine (AMP). The test article is tested in three dose groups with a half-log increase between doses. Risperidone (0.55 mg/kg, 30 minutes, s.c.) may be used as a positive control and is administered to group 5. To determine the role of test article on AMP-evoked hyperlocomotion, rats are placed in the open area and allowed to habituate for 30 min before being s.c. dosed with 0.5 mg/kg AMP. Locomotor data (distance traveled) is recorded as 5-minute bins throughout the 90-minute session. The dose of AMP is chosen based on the selective increase in locomotor behavior relative to stereotypes. The dose of risperidone is chosen that produced reliable effects and served as a positive control. Statistical Analysis: Spontaneous locomotion (prior to AMP administration) is calculated as the total distance traveled during the first 30 minutes of the experimental session. AMP-evoked responses are calculated as the total distance traveled during the last 60 minutes of the experimental session which commenced immediately after AMP administration. Locomotor data may be analyzed by a one-way ANOVA. When there is a significant overall ANOVA, post hoc comparisons may be made by Dunnett's test with statistical significance determined as p<0.05. […] Behavioral Procedures: Studies were conducted in MedAssociates open field chambers (27.3 cm×27.3 cm×20.3 cm, MedAssociates, St. Albans, VT) in which movement was automatically tracked and recorded by 16 beam arrays. Administration pretreatment of the test article was determined to coincide with Tmax at the time of the amphetamine-evoked session with optimal route of administration. […] Locomotor data (distance traveled) was recorded as 5-minute bins throughout the 90-minute session. […] Statistical Analysis: Spontaneous locomotion (prior to AMP administration) was calculated as the total distance traveled during the first 30 minutes of the experimental session. […]

Assay [2] concerns the target T1, rM4 receptors (Rattus norvegicus, UniProt P08485).
T1 construct: expressed in transfected cells; host or cells: CHO cells
T1 sequence (P08485 1-478): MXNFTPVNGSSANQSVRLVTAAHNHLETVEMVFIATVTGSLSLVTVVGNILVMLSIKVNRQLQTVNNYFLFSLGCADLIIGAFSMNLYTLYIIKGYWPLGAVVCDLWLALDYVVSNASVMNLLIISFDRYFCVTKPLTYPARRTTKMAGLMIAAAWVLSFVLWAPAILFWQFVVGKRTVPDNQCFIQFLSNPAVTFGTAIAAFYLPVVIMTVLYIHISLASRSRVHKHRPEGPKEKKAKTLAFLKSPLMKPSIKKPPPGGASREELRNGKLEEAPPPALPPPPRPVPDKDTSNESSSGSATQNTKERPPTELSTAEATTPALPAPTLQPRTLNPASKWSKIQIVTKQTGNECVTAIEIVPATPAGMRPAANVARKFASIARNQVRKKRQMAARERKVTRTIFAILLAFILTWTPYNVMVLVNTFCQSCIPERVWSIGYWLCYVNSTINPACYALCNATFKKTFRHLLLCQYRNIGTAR
Nature of the assay: Rat M4 PAM PERK assay (CHO cells, TR-FRET, with EC20 acetylcholine). In kind it is cell-based. In a few lines: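 CHO cells expressing human or rat M4, serum-starved 4 h, then given compound (10-point, 10 μM top, ½-log) with EC20 acetylcholine (10 nM final) for 5 min at 37 °C. Lysates assayed for phospho-ERK by TR-FRET after 2 h detection at RT.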

pEC50: −log10 of the molar value.

Turning to `Cc1cc(=O)n(C)c2c1CN(C(=O)CC1CN(c3cc(F)cc(C4CC4)c3)C1)C2` [Compound I-4], the “Dose Amount of Compound at which rats displayed a reduction in amphetamine-evoked hyperlocomotion activity” value in assay [1] amounted to 10 mg/kg. In addition, in assay [2], the negative-log EC50 (pEC50) is 6.70 to 7.30.
The like results for `Cc1cc(=O)n(C)c2c1CN(C(=O)CC1CN(c3cccc(F)c3F)C1)C2` [Compound I-14] were, in that order, 32 mg/kg and 6.00 to 6.70.
For `Cc1c2c(n(C)c(=O)c1C)CN(C(=O)CC1CN(c3ccnc(C(F)(F)F)c3)C1)C2` [Compound I-42, 1,3,4-Trimethyl-6-(2-(1-(2-(trifluoromethyl)pyridin-4-yl)azetidin-3-yl)acetyl)-1,5,6,7-tetrahydro-2H-pyrrolo[3,4-b]pyridin-2-one] the same measures were 32 mg/kg and 6.70 to 7.30.
For `Cc1c2c(n(C)c(=O)c1F)CN(C(=O)CC1CN(c3ccc(C4CC4)c(F)c3)C1)C2` [Compound I-88] the same measures were 10 mg/kg and > 7.30.
